Measurements from PubChem BioAssay (NCI).
Several values for one entry are separate records, joined by “and”; a condition that tells them apart may be missing. Equal values may be shown once.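 Exposure lasted 48 hours, with cells grown in 96-well plates and compounds tested at five concentrations. Abbreviation: GI50, concentration required for 50% inhibition of growth. Definition used: TGI = concentration required for complete inhibition of growth.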

Tests used:
Assay in all cases: inhibition of tumour cell growth, NCI panel, 48 h
ACHN renal = system: ACHN renal
COLO 205 colon = system: COLO 205 colon
IGROV1 ovarian = system: IGROV1 ovarian
K-562 leukemia = system: K-562 leukemia
MDA-MB-231 breast = system: MDA-MB-231 breast
RPMI-8226 leukemia = system: RPMI-8226 leukemia
SF-268 CNS = system: SF-268 CNS
SF-539 CNS = system: SF-539 CNS
SK-MEL-5 melanoma = system: SK-MEL-5 melanoma
SNB-19 CNS = system: SNB-19 CNS

| SMILES | TGI (ACHN renal) [µM] | TGI (COLO 205 colon) [µM] | TGI (IGROV1 ovarian) [µM] | TGI (K-562 leukemia) [µM] | TGI (MDA-MB-231 breast) [µM] | TGI (RPMI-8226 leukemia) [µM] | TGI (SF-268 CNS) [µM] | TGI (SF-539 CNS) [µM] | TGI (SK-MEL-5 melanoma) [µM] | TGI (SNB-19 CNS) [µM] | GI50 (ACHN renal) | GI50 (COLO 205 colon) | GI50 (IGROV1 ovarian) [µM] | GI50 (K-562 leukemia) [µM] | GI50 (MDA-MB-231 breast) [µM] | GI50 (RPMI-8226 leukemia) [µM] | GI50 (SF-268 CNS) [µM] | GI50 (SF-539 CNS) [µM] | GI50 (SK-MEL-5 melanoma) [µM] | GI50 (SNB-19 CNS) [µM] |
| --- | --- | --- | --- | --- | --- | --- | --- | --- | --- | --- | --- | --- | --- | --- | --- | --- | --- | --- | --- | --- |
| O=[N+]([O-])/C=C/c1cc2ccccc2[nH]1 | 31.1 | 32.7 | 26.3 | 52.8 | 36.9 | 9.85 | 36.4 | 25.5 | 28.2 | 34.7 | – | – | – | – | – | – | – | – | – | – |
| O=C(O)CCC/C=C\C[C@H]1C=CC(=O)/C1=C/C[C@@H](O)CCc1cccc(C(F)(F)F)c1 | 3.22 | 5.49 | 13.6 | 10.1 | 21.9 | 12.2 | 16.5 | 6.57 | 3.14 | 4.8 | 1.65 µM | 2.26 µM | 3.41 | 2.24 | 5.19 | 1.91 | 3.22 | 2.46 | 1.71 | 2.01 |
| COC(=O)Nc1nc2ccc(C(=O)c3ccc(N(C)C4COC4)cc3)cc2[nH]1 | > 100 | 1.03 | > 100 | > 100 | > 100 | > 47.5 | > 100 | 1.16 | 3.99 | > 100 | 0.846 µM | 0.285 µM | 0.905 | 0.333 | 0.608 | 0.369 | 0.745 | 0.264 | 0.425 | 0.435 |
| COc1cc2c(cc1OC)C(OC)N(C)c1c-2ccc2cc3c(cc12)OCO3 (stereo not drawn) | > 75 | 2.95 | 3.02 | 33.2 | 5.16 | 13.4 | > 20.9 | 4.69 | 6.76 | > 75 | – | – | – | – | – | – | – | – | – | – |
| COc1cc(Nc2ncc(F)c(Nc3ccc4c(n3)NC(=O)C(C)(C)O4)n2)cc(OC)c1OC | > 100 | > 100 | > 10 | > 100 | > 10 | > 100 | > 10 | 9.38 | > 100 | > 100 | 0.791 µM and 1.36 µM | 2.4 µM and 2.55 µM | 0.43 | > 100 | 3.09 | > 100 | 3.6 | 0.916 | > 100 | > 100 |
| COc1ccc(C[C@@H]2NC[C@@H](O)[C@@H]2OC(C)=O)cc1 | – | – | 8.14 | > 100 | 0.261 | – | – | > 100 | – | – | 9.5 µM | 2.04 µM | 0.367 | 1.1 | – | 1.79 | 4.37 | 9.48 | 0.456 | 3.73 |
| Fc1ccc(-c2ncn(C3CCNCC3)c2-c2ccnc(Oc3ccc(F)c(F)c3)n2)cc1 | > 25 | 8.47 | > 22.6 | > 19.9 | 12 | > 23.7 | > 25 | 9.8 | 6.83 | > 25 | 9.9 µM | 4.55 µM | 8.61 | 7.56 | 5.59 | 12.5 | 12 | 4.94 | 3.55 | 12.2 |
| S=C(Nc1ccc(Cl)cc1)Nc1ccc(-c2nc3ccccc3o2)cc1 | 35.8 | > 100 | 37.4 | > 100 | 35.1 | 23.2 | 76.7 | 41.8 | 32.2 | > 100 | 17.3 µM | 19.9 µM | 10.9 | 22.6 | 10.3 | 3.8 | 16.5 | 19.2 | 14 | 25.6 |
| O=C(O)c1ccc(S(=O)(=O)Nc2ccc3oc4c(c3c2)C(=O)CCC4)cc1 | > 100 | > 100 | > 100 | > 100 | > 100 | > 100 | > 100 | > 100 | > 100 | > 100 | > 100 µM | > 100 µM | > 100 | > 100 | > 100 | > 100 | > 100 | > 100 | > 100 | > 100 |
| Cc1[nH]c2ccccc2c1-c1cc(-c2cc(-c3c(C)[nH]c4ccccc34)nc(N)n2)nc(N)n1 | > 100 | > 100 | > 100 | > 100 | > 100 | > 100 | > 100 | > 100 | > 100 | > 100 | – | – | – | – | – | – | – | – | – | – |
| Cc1cc(Nc2c3ccccc3nc3ccccc23)ccc1NS(C)(=O)=O | 12.5 | 6.35 | 11 | 14.5 | 19.7 | 11.2 | 19.2 | 14.9 | 16.6 | 35.9 | 2.96 µM | 2.44 µM | 3.07 | 3.59 | 4.35 | 3.02 | 4.66 | 3.74 | 4.2 | 5.65 |
| CN1C(=O)[C@@H](NC(=O)[C@H](CCC(F)(F)F)[C@H](CCC(F)(F)F)C(N)=O)N=C(c2ccccc2)c2ccccc21 | > 100 | > 100 | > 100 | > 100 | > 100 | > 100 | > 100 | > 100 | > 100 | > 100 | 45 µM | 87.5 µM | > 100 | > 100 | 43.7 | 58.7 | > 100 | 50.3 | 36.1 | > 100 |
| O=C(Nc1ccccc1O)c1ccc(CNc2ccnc(C(F)(F)F)c2)cc1 | > 100 | 31.3 | 32.9 | > 100 | 50.6 | 5.09 | 26.3 | 23.1 | 10.2 | 33.9 | 2.59 µM | 14.7 µM | 7.64 | 2.39 | 9.29 | 0.5 | 4.55 | 1.89 | 2.2 | 10.4 |
